In patent publication US11866412B1, “Acridin-9-one compounds as antibacterial agents” (KING FAISAL UNIVERSITY, priority 2023, dated 2024):
In brackets after ≈: the same amount, converted by molar mass. Like-named read-outs stand apart in the source and are kept apart here.

Tests used:
[1] = system: Pseudomonas aeruginosa MTCC 741; test: in vitro antibacterial activity, dilution MIC (CLSI M07-A10); type: cell-based; conditions: MTCC741
[2] = system: Enterococcus faecium ATCC 51559 (VRE resistant); test: as above; type: cell-based
[3] = system: Bacillus subtilis MTCC 441; test: as above; type: cell-based; conditions: MTCC441
[4] = system: Staphylococcus epidermidis; test: as above; type: cell-based
DNA gyrase from E. coli = target: T1, DNA gyrase from E. coli (Escherichia coli, UniProt P0AES4+P0AES6); test: Inhibitory activities on E. coli DNA Gyrase (Inspiralis assay); type: biochemical
T1 construct: purchased Inspiralis
T1 sequence (P0AES4 whole entry, one chain of several): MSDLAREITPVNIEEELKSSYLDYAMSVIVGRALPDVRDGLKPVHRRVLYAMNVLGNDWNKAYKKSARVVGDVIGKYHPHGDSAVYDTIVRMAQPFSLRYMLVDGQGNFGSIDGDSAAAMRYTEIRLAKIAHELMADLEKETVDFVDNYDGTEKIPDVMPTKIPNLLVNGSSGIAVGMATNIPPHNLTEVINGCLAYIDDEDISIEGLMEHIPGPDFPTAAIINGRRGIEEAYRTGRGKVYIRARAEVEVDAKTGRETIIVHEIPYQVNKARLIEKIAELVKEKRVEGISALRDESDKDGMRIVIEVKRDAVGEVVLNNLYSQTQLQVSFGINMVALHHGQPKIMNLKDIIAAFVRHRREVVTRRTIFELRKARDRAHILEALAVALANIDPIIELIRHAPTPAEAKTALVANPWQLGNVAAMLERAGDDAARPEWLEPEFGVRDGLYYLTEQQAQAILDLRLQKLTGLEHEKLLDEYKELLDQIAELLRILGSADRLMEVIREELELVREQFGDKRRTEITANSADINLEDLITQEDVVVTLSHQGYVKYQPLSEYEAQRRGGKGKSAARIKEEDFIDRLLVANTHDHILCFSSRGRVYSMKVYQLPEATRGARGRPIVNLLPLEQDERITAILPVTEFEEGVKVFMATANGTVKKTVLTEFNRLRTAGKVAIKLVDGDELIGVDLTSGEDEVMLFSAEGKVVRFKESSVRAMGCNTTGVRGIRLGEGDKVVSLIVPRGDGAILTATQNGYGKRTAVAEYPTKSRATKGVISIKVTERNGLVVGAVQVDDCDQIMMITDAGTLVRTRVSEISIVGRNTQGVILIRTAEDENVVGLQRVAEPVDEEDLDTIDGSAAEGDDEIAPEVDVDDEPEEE
Procedure: First, the plates were rehydrated with buffer (20 mM Tris-HCl with pH 7.6, 0.01% w/v BSA, 0.05% v/v Tween 20, 137 mM NaCl) and the biotinylated oligonucleotide was then immobilized. After washing off the unbound oligonucleotide, the enzyme test was performed. […] Reaction solutions were incubated at 37° C. for 30 min. After that, the TF buffer (50 mM NaOAc with pH 5.0, 50 mM NaCl and 50 mM MgCl2) was added to terminate the enzymatic reaction. After additional incubation for 30 min at rt, during which biotinoligonucleotide-plasmid triplex was formed, the unbound plasmid was washed off using TF buffer and SybrGOLD in T10 buffer (10 mM Tris HCl with pH 8.0 and 1 mM EDTA) was added. The fluorescence was measured with a microplate reader (BioTek Synergy H4, excitation: 485 nm, emission: 535 nm). Initial screening was done at 100 or 10 μM concentration of inhibitors. […] GraphPad Prism software was used to calculate the IC50 values. The result is given as the average value of three independent measurements.

[5] = system: Staphylococcus aureus ATCC BAA-1556 (MERSA resistant); test: in vitro antibacterial activity, dilution MIC (CLSI M07-A10); type: cell-based; conditions: ATCCBAA1556
[6] = system: Enterococcus faecium ATCC 35667; test: as above; type: cell-based; conditions: ATCC35667
[7] = system: Escherichia coli MTCC 443; test: as above; type: cell-based; conditions: MTCC443
[8] = system: Klebsiella pneumonia MTCC 618; test: as above; type: cell-based; conditions: Klebsiella pneumoniae, MTCC618
[9] = system: Staphylococcus aureus ATCC 29213; test: as above; type: cell-based; conditions: ATCC29213
[10] = system: H37Rv type of M. tuberculosis strains; test: antitubercular alamar blue microplate MIC assay; type: cell-based; conditions: mycobacterium tuberculosis H37Rv strain, read-out: anti-mycobacterial activity (MIC)

| Structure (SMILES) | MIC [1] [µg/mL] | MIC [2] [µg/mL] | MIC [3] [µg/mL] | MIC [4] [µg/mL] | IC50 (DNA gyrase from E. coli) [nM] | MIC [5] [µg/mL] | MIC [6] [µg/mL] | MIC [7] [µg/mL] | MIC ([8]; Klebsiella pneumonia MTCC 618, read-out: MIC) [µg/mL] | MIC [9] [µg/mL] | MIC [10] [µg/mL] | MIC [8] [µg/mL] |
| --- | --- | --- | --- | --- | --- | --- | --- | --- | --- | --- | --- | --- |
| CCCCCN(C)Cc1ccc(C(=O)O)cc1-c1cnc2[nH]c3c(NC)cc(F)cc3c(=O)c2c1 [Compound 8, 3-(7-fluoro-9-(methylamino)-5-oxo-5,10-dihydrobenzo[b][1,8]naphthyridin-3-yl)-4-((methyl(pentyl)amino)methyl)benzoic acid] | 0.5 (≈ 1.05 µM) | 0.1 (≈ 0.21 µM) | 0.5 (≈ 1.05 µM) | 1 (≈ 2.1 µM) | 11 | 0.75 (≈ 1.57 µM) | 0.1 (≈ 0.21 µM) | 2 (≈ 4.2 µM) | 0.75 (≈ 1.57 µM) | 0.75 (≈ 1.57 µM) | 4 (≈ 8.39 µM) |  |
| CN[C@H](CC(C)C)C(=O)N[C@H]1C(=O)N[C@@H](CC(N)=O)C(=O)N[C@H]2C(=O)N[C@H]3C(=O)N[C@H](C(=O)N[C@H](C(=O)O)c4cc(O)cc(O)c4-c4cc3ccc4O)[C@H](O)c3ccc(c(Cl)c3)Oc3cc2cc(c3O[C@@H]2O[C@H](CO)[C@@H](O)[C@H](O)[C@H]2O[C@H]2C[C@](C)(N)[C@H](O)[C@H](C)O2)Oc2ccc(cc2Cl)[C@H]1O [Vancomycin, reference compound] |  |  |  |  |  |  |  |  |  |  |  | > 128 |
